Each structure is given as a SMILES string. Where only a bound is given, the exact number is not on record here.

One test concerns the target T1, LOX (Mus musculus, UniProt P28301).
T1 construct: Full length LOX cDNA was then PCR cloned into pEGFP-N1 (Clonetech), or biosensor vector proGFP2-N1; expressed in transfected cells; host or cells: MDCK cells grown as cysts on Matrigel, G418-selected
T1 sequence (P28301 163-411): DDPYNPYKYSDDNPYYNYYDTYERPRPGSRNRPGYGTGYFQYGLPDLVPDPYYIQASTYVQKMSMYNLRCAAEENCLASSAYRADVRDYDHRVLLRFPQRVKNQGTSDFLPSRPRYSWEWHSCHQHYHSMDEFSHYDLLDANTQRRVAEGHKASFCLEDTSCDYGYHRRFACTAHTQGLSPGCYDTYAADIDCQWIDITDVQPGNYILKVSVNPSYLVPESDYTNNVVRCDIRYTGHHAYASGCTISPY
The experiment in a line: LOX activity in cysts assay (LOX-roGFP2 biosensor, MDCK cysts). The class given is cell-based. Conditions: 2.5 uM (stated in cell); MDCK cysts; DMSO = 0%, BAPN 1 mM = 100% inhibition; read-out: LOX biosensor inhibition (cyst) @ 2.5 uM. The protocol:
LOX Activity in Cysts Assay (Tang et al, 2017).
All cell lines used in this study were purchased from American Type Culture Collection (ATCC). Mycoplasma contamination was routinely monitored by PCR. Cells used were not found to be Mycoplasma positive. MDCK cell lines were cultured in Dulbecco's Modified Eagle Medium (DMEM) supplemented with 10% fetal bovine serum (FBS) and 1% Penicillin Streptomycin solution (Pen Strep). For GFP constructs transfection in MDCK cells, lipofectamine 3000 was used according to manufactures protocols. Cells were either selected with G418 (Life Technologies) at 5 mg/ml. All cell culture reagents were purchased from Life Technologies.
To produce MDCK cysts, cells were cultured on Matrigel (Corning) with 2% Matrigel supplemented in DMEM with 10% FBS. Cysts were allowed to form for 10 days before subsequent studies.
Mouse LOX cDNA was purchased from OriGene. Full length LOX cDNA was then PCR cloned into pEGFP-N1 (Clonetech), or biosensor vector proGFP2-N1 (Hanson, 2004) using the following primers, […] (forward primer) and […] (reverse primer). For the insertion into pEGFP-N1 or proGFP2-N1, NheI and XhoI restriction sites were added to forward and reverse primers accordingly. Mutant LOX constructs were made using QuickChange II site-directed mutagenesis kit (Agilent Technologies) following manufacture's protocol using LOX-GFP as template. To generate, roGFP2 versions of LOX mutant constructs, LOX mutant cDNA was transferred from pEGFP-N1 to proGFP2-N1 using NheI and XhoI.
All photomicrographs were taken with a Leica TCS SP8 X confocal system. For LOX biosensor imaging, live MDCK cysts were used. The oxidised biosensor was excited using a 405 nm laser, while the reduced biosensor was excited with a 488 nm laser. Emission of the biosensor was recorded at 500 nm˜530 nm range using sequential scans. Ratio images were generated following a published protocol {Kardash, 2011 #376}. Note, while the published protocol generates YFP/CFP ratio images, we used it to generate Oxidised/Reduced (roGFP2 ratio) ratio images. The roGFP2 ratio at the basal surface of MDCK cysts was used to indicate LOX inhibition. LOX inhibitors were added 30 min prior to imaging.
For clarity, readout for DMSO treated cysts represents 0% inhibition (no inhibition) and readout for BAPN at 1 mM is used as 100% inhibition (full inhibition).
Usually inhibition stands for the percentage by which the read-out fell short of the control. For the compound `CCNC(=O)N1C[C@@H]2CN(c3ccc(F)cc3)[C@H](C1)C(C)(C)C2` [Example 2, (1 S,5S)—N-ethyl-6-(4-fluorophenyl)-9,9-dimethyl-3,6-diazabicyclo[3.2.2]nonane-3-carboxamide], the inhibition at 2.5 µM came to 92%.

Staying with this test, now noted: 10 uM; MDCK cysts; inhibitor added 30 min prior to imaging; DMSO = 0%, BAPN 1 mM = 100% inhibition; read-out: LOX biosensor inhibition (cyst) @ 10 uM.
Consider `CCOc1ccc(N2C[C@H]3CN(C(=O)c4ccccn4)C[C@@H]2C(C)(C)C3)cc1` [Example 51, ((1S,5S)-6-(4-ethoxyphenyl)-9,9-dimethyl-3,6-diazabicyclo[3.2.2]nonan-3-yl)(pyridin-2-yl)methanone], for which the inhibition at 10 µM turned out to be 75%. Same read-out and setting: under `CNS(=O)(=O)N1C[C@@H]2CN(c3ccc(OC)cc3)[C@H](C1)C(C)(C)C2` [Example 56, (1S,5S)-6-(4-methoxyphenyl)-N,9,9-trimethyl-3,6-diazabicyclo[3.2.2]nonane-3-sulfonamide] stands 74%. The same measure, in the same setting: under `CCCCc1ccc(N2C[C@H]3CN(C(=O)NCCO)C[C@@H]2C(C)(C)C3)cc1` [Example 33, (1S,5S)-6-(4-butylphenyl)-N-(2-hydroxyethyl)-9,9-dimethyl-3,6-diazabicyclo[3.2.2]nonane-3-carboxamide] stands 69.3%. The same measure, in the same setting: in the case of `CCOc1ccc(N2C[C@H]3CN(CC(O)CC#N)C[C@@H]2C(C)(C)C3)cc1` (stereo partly drawn) [Example 46, 4-((1R,5S)-6-(4-Ethoxyphenyl)-9,9-dimethyl-3,6-diazabicyclo[3.2.2]nonan-3-yl)-3-hydroxybutanenitrile] it was 72%; in that of `CCCS(=O)(=O)N1C[C@@H]2CN(c3ccc(OCC)cc3)[C@H](C1)C(C)(C)C2` [Example 54, (1S,5S)-6-(4-ethoxyphenyl)-9,9-dimethyl-3-(propylsulfonyl)-3,6-diazabicyclo[3.2.2]nonane], 54%; in that of `CCOc1ccc(N2C[C@H]3CN(c4ccc(NC(C)=O)cc4)C[C@@H]2C(C)(C)C3)cc1` [Example 58, N-(4-((1R,5S)-6-(4-ethoxyphenyl)-9,9-dimethyl-3,6-diazabicyclo[3.2.2]nonan-3-yl)phenyl)acetamide], 100%. Consider `CCOc1ccc(N2C[C@H]3CN(C(=O)CNC(=N)CN)C[C@@H]2C(C)(C)C3)cc1` [Example 53, 2-amino-N-(2-((1S,5S)-6-(4-ethoxyphenyl)-9,9-dimethyl-3,6-diazabicyclo[3.2.2]nonan-3-yl)-2-oxoethyl)acetimidamide], for which the inhibition at 10 µM is 100%. Still for that read-out and setting: in the case of `CNC(=O)N1C[C@@H]2CN(c3ccc(N4CCS(=O)(=O)CC4)cc3)[C@H](C1)C(C)(C)C2` [Example 6, (1S,5S)-6-(4-(1,1-dioxidothiomorpholino)phenyl)-N,9,9-trimethyl-3,6-diazabicyclo[3.2.2]nonane-3-carboxamide] it was 50%; in that of `CCOc1ccc(N2C[C@H]3CN(C(=O)CCC#N)C[C@@H]2C(C)(C)C3)cc1` [Example 50, 4-((1S,5S)-6-(4-Ethoxyphenyl)-9,9-dimethyl-3,6-diazabicyclo[3.2.2]nonan-3-yl)-4-oxobutanenitrile], 57%; in that of `CC1(C)C[C@@H]2CN(C(=O)N3CCS(=O)(=O)CC3)C[C@H]1N(c1ccc3c(c1)OCCO3)C2` [Example 63, ((1 S,5S)-6-(2,3-dihydrobenzo[b][1,4]dioxin-6-yl)-9,9-dimethyl-3,6-diazabicyclo[3.2.2]nonan-3-yl)(1,1-dioxidothiomorpholino)methanone], 100%. For the compound `CCOc1ccc(N2C[C@H]3CN(C(=O)N4CCC(N5CCCC5)CC4)C[C@@H]2C(C)(C)C3)cc1` [Example 18, ((1S,5S)-6-(4-ethoxyphenyl)-9,9-dimethyl-3,6-diazabicyclo[3.2.2]nonan-3-yl)(4-(pyrrolidin-1-yl)piperidin-1-yl)methanone], the inhibition at 10 µM stood at 84%. `CC1(C)C[C@@H]2CN(C(=O)N3CCN(S(C)(=O)=O)CC3)C[C@H]1N(c1ccc(N3CCS(=O)(=O)CC3)cc1)C2` [Example 61, ((1S,5S)-6-(4-(1,1-dioxidothiomorpholino)phenyl)-9,9-dimethyl-3,6-diazabicyclo[3.2.2]nonan-3-yl)(4-(methylsulfonyl)piperazin-1-yl)methanone]: the inhibition at 10 µM was 79%.

Take `CCOc1ccc(N2C[C@@H]3CC(C)(C)[C@H]2CCN3C(=O)NCCO)cc1` [Example 20, (1S,5R)-6-(4-ethoxyphenyl)-N-(2-hydroxyethyl)-9,9-dimethyl-2,6-diazabicyclo[3.2.2]nonane-2-carboxamide]: the inhibition at 10 µM was 79%. Still for that read-out and setting: in the case of `CCOc1ccc(N2C[C@H]3CN(C(=O)N(C)CCC#N)C[C@@H]2C(C)(C)C3)cc1` [Example 16, (1S,5S)-N-(2-cyanoethyl)-6-(4-ethoxyphenyl)-N,9,9-trimethyl-3,6-diazabicyclo[3.2.2]nonane-3-carboxamide] it was 88%.

Regarding `CC1(C)C[C@@H]2CN(C(=O)N3CCS(=O)(=O)CC3)C[C@H]1N(c1ccc(N3CCN(S(C)(=O)=O)CC3)cc1)C2` [Example 31, ((1S,5S)-9,9-dimethyl-6-(4-(4-(methylsulfonyl)-1λ4-piperazin-1-yl)phenyl)-3,6-diazabicyclo[3.2.2]nonan-3-yl)(1,1-dioxidothiomorpholino)methanone], the inhibition at 10 µM stood at 100%. On the same count and under the same terms, under `CC1(C)C[C@@H]2CN(C(=O)NCCO)C[C@H]1N(c1ccc(C=O)cc1)C2` [Example 37, (1 S,5S)-6-(4-Formylphenyl)-N-(2-hydroxyethyl)-9,9-dimethyl-3,6-diazabicyclo[3.2.2]nonane-3-carboxamide] stands 86%; under `CCOc1ccc(N2C[C@H]3CN(C(=O)NNCCO)C[C@@H]2C(C)(C)C3)cc1` (stereo in doubt) [Example 29, 6-(4-ethoxyphenyl)-N′-(2-hydroxyethyl)-9,9-dimethyl-3,6-diazabicyclo[3.2.2]nonane-3-carbohydrazide], 100%; under `CCOc1ccc(N2C[C@H]3CN(CCc4cn[nH]c4)C[C@@H]2C(C)(C)C3)cc1` [Example 48, (1R,5S)-3-(2-(1H-pyrazol-4-yl)ethyl)-6-(4-ethoxyphenyl)-9,9-dimethyl-3,6-diazabicyclo[3.2.2]nonane], 100%. On the same count and under the same terms, in the case of `CC1(C)C[C@@H]2CN(C(=O)NCCO)C[C@H]1N(c1ccc(Br)cc1)C2` [Example 35, (1S,5S)-6-(4-Bromophenyl)-N-(2-hydroxyethyl)-9,9-dimethyl-3,6-diazabicyclo[3.2.2]nonane-3-carboxamide] it was 84.1%; in that of `CCNC(=O)N1C[C@@H]2CN(c3ccc(OCCOC)cc3)[C@H](C1)C(C)(C)C2` [Example 3, (1S,5S)—N-ethyl-6-(4-(2-methoxyethoxy)phenyl)-9,9-dimethyl-3,6-diazabicyclo[3.2.2]nonane-3-carboxamide], 88%; in that of `CCOc1ccc(N2C[C@H]3CN(CC4(CC#N)CC4)C[C@@H]2C(C)(C)C3)cc1` [Example 43, 2-(1-(((1R,5S)-6-(4-ethoxyphenyl)-9,9-dimethyl-3,6-diazabicyclo[3.2.2]nonan-3-yl)methyl)cyclopropyl)acetonitrile], 59%. Same read-out and setting: under `CCOc1ccc(N2C[C@H]3CN(S(=O)(=O)c4ccc(F)cc4)C[C@@H]2C(C)(C)C3)cc1` [Example 55, (1S,5S)-6-(4-ethoxyphenyl)-3-((4-fluorophenyl)sulfonyl)-9,9-dimethyl-3,6-diazabicyclo[3.2.2]nonane] stands 100%.

The test is the same for the next values; noted with them: MDCK cysts, roGFP2 ratio at basal surface; read-out: LOX biosensor IC50 (cyst).
For orientation: IC50 means the concentration that inhibits the measured activity by half. Turning to `CC1(C)C[C@@H]2CN(C(=O)N3CCS(=O)(=O)CC3)C[C@H]1N(c1ccc(N3CCN(S(C)(=O)=O)CC3)cc1)C2` [Example 31, ((1S,5S)-9,9-dimethyl-6-(4-(4-(methylsulfonyl)-1λ4-piperazin-1-yl)phenyl)-3,6-diazabicyclo[3.2.2]nonan-3-yl)(1,1-dioxidothiomorpholino)methanone], the concentration for half-maximal inhibition (IC50) was < 180 nM.

The values above are taken from patent publication US12060360B2, “Lysyl oxidase inhibitors” (The Institute of Cancer Research: Royal Cancer Hospital, priority 2017, dated 2024).
